Key:
[1] = system: Saccharomyces cerevisiae strain K473; test: Growth inhibition by Ca2+ of pmc1 mutant yeast; type: cell-based; conditions: YPD medium, 30° C., 22 hr; read-out: 50% decrease in relative growth (IC50)
Experimental: This example describes growth inhibition by Ca^2+ of Saccharomyces cerevisiae strain K473, a pmc1 mutant lacking function in a vacuolar Ca2+ ATPase (Cunningham et al., 1996, Molec. Cell. Biology 16:2226-37; Cunningham et al., 1994 J. Cell Biol. 124:351-363). The strain was grown at 30° C. on standard YPD medium supplemented with 0, 50, 100, 200 or 300 mM CaCl2, as indicated. […]

[2] = system: isolated yeast mitochondria; test: Ca2+ transport in isolated yeast mitochondria expressing aequorin (luminescence); type: biochemical, Saccharomyces cerevisiae; conditions: FIG. 24
Experimental: For preculture, the transformant was inoculated into 50 ml of SC-U plus 2% glucose, and incubated in an air shaker at 180 rpm and 30° C. At 24 hr, the preculture was transferred to 500 ml of a medium containing 1% yeast extract, 2% peptone, 2% lactate, 1% galactose, 0.012% adenine, pH 5 w/NaOH, and growth was continued under conditions which were otherwise the same. Cells were harvested after an additional 24 hr, spheroplasts were prepared using zymolyase, and mitochondria were isolated by the method of Daum et al. (1982) as previously described (Jung et al., 1997). The final pellet was resuspended at ˜20 mg protein/ml in 0.6 M mannitol, 20 mM HEPES (K^+ salt, pH 6.8). Apoaequorin in the intact or disrupted mitochondria was reconstituted by incubation with coelenterazine as described above for cells.
For most experiments, the mitochondria were present at 0.4 mg protein/ml in a standard medium that contained 0.3 M KCl, 20 mM HEPES, (K^+ salt, pH 7.10), 10 mM KH2PO4, 2 mM EGTA, and 2 mM MgCl2. Other additions are described in greater detail below. Ca^2+ buffers were formed by adding various amounts of CaCl2 to this EGTA containing medium. The free Ca^2+ concentrations which resulted were calculated using a computer program (Brooks et al., 1992 Anal. Biochem. 201:119).
Luminescence measurements were carried out in 6×50 mm culture tubes, using a total volume of 0.3 ml, and were started by injection of 5-20 μl of mitochondria or cells. A SAI model 3000 integrating photometer was employed, with AJD sampling at 0.4 seconds intervals driven by Asyst software. Values were transformed into corresponding Ca^2+ concentrations by computer assisted calculations based upon published calibration methods (Allen et al., 1977 Science 195:996; Brini et al., 1995 J. Biol. Chem. 270:9896). For each value, the ratio of observed luminescence (L) to the potential luminescence remaining (Lmax) was calculated, and compared to a calibration curve which relates this ratio to the free Ca^2+ concentration. Thus, complete calibrated progress curves were generated. The total luminescence available initially (Ltotal) must be known and was determined in separate experiments, wherein a saturating Ca^2+ concentration (20 μM) is employed to discharge the aequorin completely. This value allows Lmax to be calculated at any time, as Ltotal minus the sum of luminescence that already occurred.
The calibration data were obtained at an ionic strength of 335 mM and in the presence of 1 mM Mg^2+, to mimic conditions in the mitochondrial matrix, because both factors influence the affinity of aequorin for Ca2+ (Cobbold et al., 1987 Biochem. J. 248:313). Luminescence values were corrected for low background values that are obtained when Ca^2+ is absent before conducting further calculations.

[3] = system: PMC1/PMR1 double ATPase mutant cells; conditions: Cunningham et al., 1994; cited from earlier work
yeast mitochondria [4] = test: Membrane potential ΔΨ of isolated yeast mitochondria (safranin O); type: biochemical, Saccharomyces cerevisiae
Experimental: (§1) The yeast strain W303-1A (Saccharomyces cerevisiae) was grown aerobically at 30° C. in a medium containing 2% lactate, 1% yeast extract, 2% peptone, 0.05% dextrose, and 0.01% adenine at pH 5.0, and cells were harvested during the logarithmic phase (A600=1.8−2.2). Mitochondria were isolated from spheroplasts as previously described (Jung et al., 1997 J. Biol. Chem. 272:21104), except that 0.6 M sucrose was used in the homogenization medium instead of 0.6 M mannitol (Daum et al., 1982 J. Biol. Chem. 257:13028). The resulting preparations were maintained on ice and were suspended in 0.6 M mannitol 20 mM HEPES (K+) (pH 6.8), containing 0.75 mg/ml BSA and 0.1 mM EGTA. Protein concentration was determined by a reduced volume Biuret method in which 50 μl of the final preparation were solubilized by adding an equal volume of 10% deoxycholate (Na+), with 0.4 ml of Biuret reagent added to the resulting mixture. BSA was employed as the standard.
Unless otherwise noted, mitochondria were incubated at 1 mg protein/ml and at approximately 25° C. in a medium that contained 0.6 M mannitol, 10 mM Pi (K+), 10 mM Hepes (TEA+), pH 7.2, plus 1 mM ethanol as an oxidizable substrate. Compounds having a low solubility in water were added from stock solutions prepared in methanol or DMSO. Ca2+ transport and membrane potential were monitored using the indicating dyes antipyrylazo III (ΔA720-790) and safranin O (ΔA511-533), respectively (Akerman et al., 1976 FEBS Lett. 68:191; Scarpa et al., 1978 Biochem. 17:1378). An SLM Aminco DW-2C spectrophotometer operated in the dual wavelength mode was employed for these purposes. The same instrument, operated in split beam mode, was used to monitor mitochondrial swelling as a decrease in apparent absorbance of mitochondrial suspensions at 540 nm. Oxygen consumption data were obtained using a Clark-type electrode in parallel experiments. Atomic absorption spectroscopy was utilized to monitor the transport of other cations by yeast mitochondria. Briefly, samples were taken at appropriate times and the mitochondria were rapidly sedimented in a microcentrifuge. After carefully removing supernatants, the pellets were solubilized with 2 N percholoric acid (overnight) and centrifuged a second time. The resulting supernatants were diluted with an appropriate volume of distilled water and the concentration of the cation in question was subsequently determined.

[5] = ETH 129 mediated cation transport into Quin-2 loaded POPC vesicles; type: biochemical; conditions: 1.0 mM CaCl2, no Val, FIG. 5
Experimental: Unilamellar vesicles loaded with Quin-2 were prepared from 1-palmitoyl-2-oleoyl-sn-glycerophosphatidylcholine (POPC) by freeze-thaw extrusion (Erdahl et al., 1994 Biophys. J. 66:1678; Erdahl et al., 1995 Biophys. J. 69:2350). The formation medium contained 5 mM Quin-2 (K+), 10 mM Hepes (K+), pH 7.00, and 100 mM KCl. A high internal K+ concentration was sought to allow the generation of membrane potentials of varying magnitude (see below). The preparations obtained were applied to Sephadex™ G-50 mini-columns (Pharmacia, Piscataway N.J.) and eluted by low speed centrifugation (Fry et al., 1978 Anal. Biochem. 90:809), to replace the external medium with a 10 mM Hepes buffer (Na+), pH 7.00 (Erdahl et al., 1994 Biophys. J. 66:1678; Erdahl et al., 1995 Biophys. J. 69:2350). The nominal concentration of POPC in final preparations was determined as lipid phosphorus (Bartlett, 1959 J Biol. Chem. 234:466) and was near 80 mM. The average diameter of these vesicles was 71 nm as determined by freeze-fracture electron microscopy (Chapman et al., 1990 Chem. Phys. Lipids 55:73). They contained entrapped K+ at approximately 125 mM, as determined by atomic absorption spectroscopy, and Quin-2 at approximately 6 mM. The latter value was determined by titrating lysed vesicles with a standard solution of CaCl2 and was about one third of the expected value (Erdahl et al., 1995 Bipohys. J. 69:3250). The high solute level in the formation medium reduced the efficiency of Quin-2 entrapment by reducing the effectiveness of a freeze-thaw driven solute concentrating mechanism that normally elevates the internal concentrations of solutes, relative to the external medium (Chapman et al., 1990 Chem. Phys. Lipids 55:73; Chapman et al., 1990 Chem. Phys. Lipids 60:201).
POPC vesicles containing Quin-2 were utilized at a nominal phospholipid concentration of 1.0 mM, and at 25° C. The external medium contained polyvalent cation salts as described below, 100 mM NaCl, or mixtures of NaCl and KCl totaling […], and 10 mM Hepes, pH 7.00, unless otherwise noted. The medium pH was adjusted with NaOH that had been passed over Chelex 100 columns to remove contaminating cations (Erdahl et al., 1994 Biophys. J. 66:1678). In most cases an inside negative membrane electrical potential was present during the experiments. This was generated by the presence of 0.5 μM valinomycin (Val), which transports K+ out of the vesicles electrogenically (Erdahl et al., 1994 Biophys. J. 66:1678). The magnitude of the potential was controlled by varying the concentration ratio of Na+ to K+ in the external medium. A TPP+electrode was used to measure the potential (Broekemeier et al, 1998 Biochem. 37:13059), and thereby to verify that the calculated values were obtained. For these purposes the incubation medium contained 2.0 μM TPP.Cl and the entrapped volume was taken to be 2.02 μl/ml at a nominal POPC concentration of 1.0 mM (Chapman et al., 1990 Chem. Phys. Lipids 55:73).
Val was omitted when an imposed membrane potential was not desired, or in some cases 5 μM of the protonophore carbonyl cyanide m-chlorophenylhydrazone (CCP) was present instead of Val.
The transport of polyvalent cations was monitored by difference absorbance measurements which detected formation of the Quin-2:cation complex within the vesicle lumen. An Aminco DW2a spectrophotometer operated in the dual wavelength mode was employed. In addition, an Oriel No. 59800 band pass filter was used between the cuvette and the beam scrambler-photomultiplier assembly to prevent detection of the fluorescent light emitted by Quin-2. The sample wavelength for all cations was 264 nm. The reference wavelengths were at an isosbestic point in the Quin-2/Quin-2:cation complex difference spectrum of interest. These wavelengths varied slightly from cation to cation, as previously described (Erdahl et al., 1996 Biochem. 35:13817). […]

yeast mitochondria [6] = test: ETH 129 mediated Ca2+ transport in isolated yeast mitochondria (antipyrylazo III); type: biochemical, Saccharomyces cerevisiae; conditions: BSA 0.5 mg/ml, 60 μM CaCl2, 3.6 μM ETH 129, increasing oleate, FIG. 14
Experimental: as §1, with “BSA was employed as the standard.” left out
Unless otherwise noted, mitochondria were incubated at 1 mg protein/ml and at approximately 25° C. in a medium that contained 0.6 M mannitol, 10 mM Pi (K+), 10 mM Hepes (TEA+), pH 7.2, plus 1 mM ethanol as an oxidizable substrate. […] Ca2+ transport and membrane potential were monitored using the indicating dyes antipyrylazo III (ΔA720-790) and safranin O (ΔA511-533), respectively (Akerman et al., 1976 FEBS Lett. 68:191; Scarpa et al., 1978 Biochem. 17:1378). […]

Row | Compound | IC50 [1] [mM] | external Ca2+ giving half-maximal rate of change in matrix Ca^2+ ([2]; nonrespiring mitochondria) [µM] | external Ca2+ giving half-maximal rate of change in matrix Ca^2+ ([2]; respiring mitochondria (0.5 mM ethanol)) [µM] | cytostatic Ca^2+ concentrations [3] [µM] | effect on ΔΨ, agent alone (yeast mitochondria [4]; BSA absent, FIG. 11B) | activation of ETH 129 mediated Ca2+ transport [5] | suppression of ΔΨ during titration with exogenous oleate (yeast mitochondria [4]; ETH 129, free Ca2+ and BSA available, no EGTA, FIG. 16) | oleate level above which ΔΨ is depressed (yeast mitochondria [4]; excess EGTA (2 mM), ETH 129, CaCl2, BSA present, FIG. 16) | effect of exogenous oleate on ETH 129 mediated Ca2+ accumulation (yeast mitochondria [6])
1 | [Ca+2] [Ca2+] | 92 | 0.82 | 1.0 | ≤ 300 | little effect |  |  |  | 
2 | CCCCCCCC/C=C\CCCCCCCC(=O)O [oleate, oleic acid] |  |  |  |  |  | inability of oleate (a lipophilic fatty acid anion) to substitute for CCP | began immediately | exceeded 15 nmol/mg protein | first inhibited further accumulation and then caused a reversal of the transport that had already occurred
